Experimental data published in US10233205B2, “Magnetic resonance imaging contrast agent capable of detecting hydrogen peroxide and reducing reactive oxygen species” (Auburn University, priority 2015, dated 2019).
Values joined by “and” are separate entries in the source; they are usually repeats but may differ in a detail not shown here. Equal values may be shown once. “Also recorded” adds a separate entry of the source.

Legend:
[1] = Stability in aerobic solution / to pH; assay type: physicochemical
Protocol: (§1) Over this time, collected UV/vis spectra (FIGS. 2 & 3) display changes in the region between 200 nm and 300 nm which are consistent with the oxidation of the quinol to a para-quinone. Past 24 h, the solution begins to turn brown, consistent with oxidation of the manganese to Mn(III) and/or Mn(IV). For the spectrophotometric analysis, the Fe(ClO4)2 solution was added to a MeCN solution containing 0.10 mM [Mn(Hptp1)(MeCN)]^2+; the mixture was scanned at 0 min (dashed red), 30 min (dashed pink), and 60 min (dashed blue). […] At 15 h, approximately 11% of the Mn(II) has been displaced by Fe(II) as indicated by data in FIG. 3.
(§2) The stability of 3 to air and adventitious metal ions was assessed primarily by UV/vis spectroscopy. […] Complex 3, however, is susceptible to metal exchange. When equimolar amounts of 3 and Fe(ClO4)2 are mixed in MeCN, 80% of the Mn(II) is replaced by Fe(II) by 3 h.

[2] = Potentiometric pH titrations, Hyperquad model
From the text: The speciation in water was more rigorously probed with potentiometric pH titrations. […] The quinolic protons likely deprotonate at higher pH values (pKa˜10), but we were unable to obtain the high pH data necessary to confirm this.
The data were fit to a model containing the protonated forms of the free ligand and four Mn(II) complexes with the ligand in various protonation states: [Mn(H2qtp2)], [Mn(H3qtp2)]^+, [Mn(H4qtp2)]^2+, and [Mn(H4qtp2)]^3+ (Scheme 4).

[3] = Cyclic voltammetry; assay type: physicochemical; settings: for ΔE, separation between anodic and cathodic peaks: ligand redox feature
Protocol: All ^1H and ^13C NMR spectra were recorded on a 400 MHz AV Bruker NMR spectrometer; all reported resonances were referenced to internal standards. Electron paramagnetic resonance (EPR) spectra were collected using a Bruker EMX-6/1 X-band EPR spectrometer operated in the perpendicular mode. The acquired data were analyzed with the program EasySpin. Each sample was run as a frozen solution in a quartz tube. High-resolution mass spectrometry (HR-MS) data were obtained at the Mass Spectrometer Center at Auburn University on a Bruker microflex LT MALDI-TOF mass spectrometer via direct probe analysis operated in the positive ion mode. IR data were collected using a Shimadzu IR Prestige-21 FT-IR spectrophotometer. A Johnson Matthey magnetic susceptibility balance (model MK I#7967) was used to measure the magnetic properties of the Mn(II) complex with H2qtp1; the reported eff value was the average of those measured for two independently prepared solid samples. Atlantic Microlabs (Norcross, Ga.) performed the elemental analyses (C, H, N). All samples submitted for elemental analysis were crystallized and dried under vacuum prior to their shipment. All cyclic voltammetry was performed under N2 at 294 K using an Epsilon electrochemistry workstation (Bioanalytical System, Inc.), a gold working electrode, a platinum wire auxiliary electrode, and a Ag/AgCl reference electrode.
Complex 3 was studied by cyclic voltammetry (CV) in water containing 50 mM phosphate to buffer the solution to pH 7.2. A redox feature with E1/2 of 60 mV vs. Ag/AgCl (295 mV vs. NHE) is observed (FIG. 22).
Similar redox processes were found for both 1 and a Zn(II)-H2qtp1 complex, leading us to assign the 60 mV redox event to the oxidation of the ligand, rather than the manganese. The separation between the anodic and cathodic peaks (ΔE) for this feature is 230 mV; this is much less reversible than its analog in the CV of 1 (75 mV). A second and entirely irreversible redox event at 725 mV (960 mV vs NHE) is tentatively assigned to the oxidation of Mn(II) to Mn(III). For this analysis, the scan rate was 100 mV/s. For the quasi-reversible feature: E1/2=57 mV vs. Ag/AgCl, ΔE=232 mV. An irreversible feature with Epc=725 mV is also observed.

[4] = tested on: H9c2 cells; assay: Cytotoxicity, CyQUANT cell number; assay type: cell-based; set-up: dose tolerated by H9c2 cells: unit not given here
Protocol: H9c2 cells were obtained from the American Tissue Type Collection (Manassas, Va., USA) and grown at 37° C. with 95% humidity and 5% CO2. Cells were grown in Dulbecco's modified eagles medium (DMEM) supplemented with 10% fetal bovine serum. Experiments were performed at 70-80% confluence. All experiments were performed in DMEM in the absence of fetal bovine serum. To determine the cytotoxic effects of 1 and 2, the H9c2 cells were exposed to increasing concentrations of these reagents or their vehicle in DMEM for either 4 or 24 h. The cell number was assessed using the CyQUANT Cell Proliferation Assay Kit (Life Technologies Corporation, Carlsbad, Calif.) per manufacturer's instructions. Cell number was expressed as a percentage of that measured for the vehicle-treated cells. Values are expressed as mean and SEM and represent three experiments performed in triplicate.
The toxicity of 3 was tested using H9c2 cells in order to facilitate comparison to that of 1. H9c2 cells were obtained from the American Tissue Type Collection (Manassas, Va., USA) and grown at 37° C. with 95% humidity and 5% CO2. Cells were grown in Dulbecco's modified eagles medium (DMEM) supplemented with 10% fetal bovine serum. Experiments were performed at 70-80% confluence. To determine the cytotoxic effects of 3, H9c2 cells were exposed to increasing concentrations of 3 ([…]) or its vehicle in DMEM for 4 or 24 hr. Cell number was assessed using the CyQUANT Cell Proliferation Assay Kit (Life Technologies Corporation, Carlsbad, Calif.) per manufacturer's instructions. Cell number was expressed as percentage of the vehicle-treated cells. Values are expressed as mean and standard deviation and represent 2-4 experiments performed in triplicate. The bars marked with an * display a significant difference from the vehicle-treated cell number for corresponding time period (p<0.05).

[5] = T1-weighted relaxivity (r1) on 3 T clinical MRI scanner; assay type: physicochemical; settings: 50 mM HEPES pH 7.00, 3 T
[6] = Metal exchange with Fe(ClO4)2 followed by UV/vis; assay type: physicochemical; settings: 0.10 mM complex + 0.10 mM Fe(ClO4)2, MeCN
Protocol: as §1, §2

## cis-Dibromo(N,N′-bis(2,5-dihydroxybenzyl)-N,N′-bis(2-pyridinylmethyl)-1,2-ethanediamine)manganese(II) [Complex 3]
[1]
  stability in aerobic solution: moderately stable in aerobic aqueous solutions above pH 7.0
[1]; aerated MeOH, 4 h
  error introduced by air oxidation: < 5%
[1]; aerated MeOH, 12 h
  decrease in intensity of 302 nm quinol feature: about 10%
[2]; pH 7.0
  percentage of free Mn(II): 1.4%
[2]; pH 7.4
  manganese bound by some form of the ligand: Over 99%
[3]
  ΔE, separation between anodic and cathodic peaks: 230 mV and 232 mV
[3]; phosphate buffer pH 7.2, quasi-reversible ligand feature
  E1/2 vs. Ag/AgCl: 60 mV and 57 mV
[3]; tentatively Mn(II) to Mn(III)
  irreversible redox event (Epc) vs. Ag/AgCl: 725 mV
  irreversible redox event vs NHE: 960 mV
[4]; 4 h
  concentration without cell death / within error of control: 50 µM
[4]; 24 h
  concentration without impact on H9c2 viability: 10 µM

## CC#N.O=S(=O)([O-])C(F)(F)F.O=S(=O)([O-])C(F)(F)F.[Mn+2].[O-]c1ccc(O)cc1CN(CCN(Cc1ccccn1)Cc1ccccn1)Cc1ccccn1 [Complex 1, Acetonitrilo(N-(2,5-dihydroxy-benzyl)-N,N′,N′-tris(2-pyridinylmethyl)-1,2-ethanediamine)manganese(II) triflate]
[1]
  stability in aerobic solution: sufficiently stable in aerobic water solutions; also recorded: slightly sensitive towards oxygen
[3]
  ΔE, separation between anodic and cathodic peaks: 75 mV
[3]; phosphate buffer pH 7.2, ligand feature
  E1/2 vs. NHE: about 300 mV
[4]; 10 μM, 24 h
  H9c2 cells surviving: less than 50%
[4]; 4 h
  concentration without cell death / within error of control: 10 µM
  dose tolerated by H9c2 cells: 10
[4]; 24 h
  concentration without impact on H9c2 viability: 1.0 µM
  dose tolerated by H9c2 cells: 1.0
[5]; 2 mM KO2
  r1 after addition of KO2: 5520 M⁻¹ s⁻¹
[5]; 10 mM NaClO
  r1 after addition of NaClO: 4.82 mM⁻¹ s⁻¹
[5]; oxidized by DDQ
  r1 of fully oxidized sensor: 5.56 mM⁻¹ s⁻¹

## CC#N.Cc1ccc(O)c(CN(CCN(Cc2ccccn2)Cc2ccccn2)Cc2ccccn2)c1.[Mn+2].[O-][Cl+3]([O-])([O-])[O-].[O-][Cl+3]([O-])([O-])[O-] [Complex 2, reference compound]
[4]; 4 h
  dose tolerated by H9c2 cells: 10
[6]; 0-60 min
  displacement of Mn(II) by Fe(II): negligible displacement
[6]; 15 h
  Mn(II) displaced by Fe(II): approximately 11%
